Measured values reported in patent US20220073536A1 (Rigel Pharmaceuticals, Inc., priority 2003, published 2022).

Legend:
[1] = system: cultured human mast cells (CHMC); assay: CHMC low cell density ionomycin activation: tryptase assay; format: cell-based; details: low cell density CHMC, 3 pt, read-out: LD Tryptase, CHMC, Iono, 3 pt
[2] = system: cultured human mast cells (CHMC); assay: CHMC low cell density IgE activation: tryptase assay; format: cell-based; details: low cell density CHMC, IgE activation
How it was run: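 Tryptase release was read from supernatant with a fluorogenic substrate (30 min, room temperature) after anti-IgE challenge of cultured human mast cells (1000–1500 cells/well, low density) for 30 minutes at 37° C.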

[3] = Homo sapiens, Mast cell, tryptase readout
[4] = Homo sapiens, Mast cell, tryptase readout, 3 pt, read-out: LD Tryptase, CHMC, IgE, 3 pt
[5] = tryptase readout, 3 pt, read-out: LD Tryptase, CHMC, IgE, 3 pt
[6] = Homo sapiens, Mast cell, tryptase readout, 8 pt, read-out: LD Tryptase, CHMC, IgE, 8 pt

IC50 [1, 3] | IC50 [2, 4] | IC50 [2, 6] | SMILES | other results
> 10 µM | < 10 µM | – | CC(=O)N1CCN(c2cccc(Nc3ncc(F)c(NC4CCC4)n3)c2)CC1 [Compound 1085, N2-[3-(4-Acetylpiperazino)phenyl]-N4-cyclobutyl-5-fluoro-2,4-pyrimidinediamine] | –
– | – | – | CC(C)(C)c1cc(Nc2ncc(F)c(Nc3ccc4c(n3)NC(=O)CO4)n2)n[nH]1 [Compound 1086, N2-(5-tert-Butylpyrazol-3-yl)-5-fluoro-N4-(3-oxo-2H,4H-5-pyrid[1,4]oxazin-6-yl)-2,4-pyrimidinediamine] | IC50 ([1]; tryptase readout): > 10 µM; IC50 [2, 5]: < 10 µM
> 10 µM | < 10 µM | < 10 µM | Cc1cc(C)cc(Nc2ncc(F)c(NC3CCC3)n2)c1 [Compound 1087, N4-Cyclobutyl-N2-(3,5-dimethylphenyl)-5-fluoro-2,4-pyrimidinediamine] | –
> 10 µM | < 10 µM | < 10 µM | COc1cc(Nc2ncc(F)c(NC3CCC3)n2)cc(OC)c1 [Compound 1088, N4-Cyclobutyl-N2-(3,5-dimethoxyphenyl)-5-fluoro-2,4-pyrimidinediamine] | –
> 10 µM | < 10 µM | < 10 µM | COc1cc(Nc2ncc(F)c(NC3CCC3)n2)cc(C(F)(F)F)c1 [Compound 1089, N4-Cyclobutyl-5-fluoro-N2-(3-methoxy-5-trifluoromethylphenyl)-2,4-pyrimidinediamine] | –
> 10 µM | < 10 µM | < 10 µM | CC(C)(C)c1cc(Nc2nc(Nc3cccc(N4CCOCC4)c3)ncc2F)n[nH]1 [Compound 1090] | –
> 10 µM | < 10 µM | < 10 µM | CC(=O)N1CCN(c2cccc(Nc3ncc(F)c(Nc4cc(C(C)(C)C)[nH]n4)n3)c2)CC1 [Compound 1091, N2-[3-(4-Acetylpiperazino)phenyl]-N4-(5-tert-butyl-1H-pyrazol-3-yl)-5-fluoro-2,4-pyrimidinediamine] | –
– | – | – | C[C@@H]1Oc2ccc(Nc3nc(Nc4cc(C(C)(C)C)[nH]n4)ncc3F)nc2NC1=O [Compound 1092, (S)-N2-(5-tert-Butyl-1H-pyrazol-3-yl)-5-fluoro-N4-(2-methyl-3-oxo-2H,4H-5-pyrid[1,4]oxazin-6-yl)-2,4-pyrimidinediamine] | IC50 ([1]; tryptase readout): > 10 µM; IC50 [2, 5]: < 10 µM; IC50 ([2]; tryptase readout, 8 pt, read-out: LD Tryptase, CHMC, IgE, 8 pt): < 10 µM
> 10 µM | < 10 µM | – | COc1ccc(Nc2ncc(F)c(Nc3cccc(NC4=NCCN4)c3)n2)cc1F [Compound 1094, 5-Fluoro-N2-(3-fluoro-4-methoxyphenyl)-N4-[3-(N-2-imidazolin-2-yl)aminophenyl]-2,4-pyrimidinediamine] | –
> 10 µM | < 10 µM | – | Cc1cc(C)cc(Nc2ncc(F)c(Nc3cccc(NC4=NCCN4)c3)n2)c1 [Compound 1095, N2-(3,5-Dimethylphenyl)-5-fluoro-N4-[3-(N-2-imidazolin-2-yl)aminophenyl]-2,4-pyrimidinediamine] | –
> 10 µM | < 10 µM | > 10 µM | COc1cc(Nc2ncc(F)c(Nc3cccc(NC4=NCCN4)c3)n2)cc(OC)c1 [Compound 1096, N2-(3,5-Dimethoxyphenyl)-5-fluoro-N4-[3-(N-2-imidazolin-2-yl)aminophenyl]-2,4-pyrimidinediamine] | –
> 10 µM | > 10 µM | – | Fc1cnc(Nc2cccc(N3CCOCC3)c2)nc1Nc1cccc(NC2=NCCN2)c1 [Compound 1097, 5-Fluoro-N4-[3-(N-2-imidazolin-2-yl)aminophenyl]-N2-(3-morpholinophenyl)-2,4-pyrimidinediamine] | –
> 10 µM | > 10 µM | – | CCOC(=O)N1CCN(c2cccc(Nc3ncc(F)c(Nc4cccc(NC5=NCCN5)c4)n3)c2)CC1 [Compound 1098, N2-[3-(4-Ethoxycarbonylpiperazino)phenyl]-5-fluoro-N4-[3-(N-2-imidazolin-2-yl)aminophenyl]-2,4-pyrimidinediamine] | –
> 10 µM | > 10 µM | – | CN1CCN(c2ccc(Nc3ncc(F)c(Nc4cccc(NC5=NCCN5)c4)n3)cc2)CC1 [Compound 1099, 5-Fluoro-N4-[3-(N-2-imidazolin-2-yl)aminophenyl]-N2-[4-(4-methylpiperazino)phenyl]-2,4-pyrimidinediamine] | –
> 10 µM | > 10 µM | – | COC(=O)N1CCN(c2ccc(Nc3ncc(F)c(Nc4cccc(NC5=NCCN5)c4)n3)cc2)CC1 [Compound 1100, 5-Fluoro-N4-[3-(N-2-imidazolin-2-yl)aminophenyl]-N2-[4-(4-methoxycarbonylpiperazino)phenyl]-2,4-pyrimidinediamine] | –
> 10 µM | < 10 µM | – | CCOC(=O)N1CCN(c2cccc(Nc3ncc(F)c(Nc4cc(C(C)(C)C)[nH]n4)n3)c2)CC1 [Compound 1101, N4-(5-tert-Butyl-1H-pyrazol-3-yl)-N2-[3-(4-ethoxycarbonylpiperazino)phenyl]-5-fluoro-2,4-pyrimidinediamine] | –
> 10 µM | < 10 µM | < 10 µM | CC(=O)N1CCN(c2ccc(Nc3ncc(F)c(Nc4cc(C(C)(C)C)[nH]n4)n3)cc2)CC1 [Compound 1102] | –
> 10 µM | < 10 µM | < 10 µM | COC(=O)N1CCN(c2ccc(Nc3ncc(F)c(Nc4cc(C(C)(C)C)[nH]n4)n3)cc2)CC1 [Compound 1103] | –
> 10 µM | < 10 µM | < 10 µM | CN1CCN(c2ccc(Nc3ncc(F)c(Nc4cc(C(C)(C)C)[nH]n4)n3)cc2)CC1 [Compound 1104] | –
> 10 µM | > 10 µM | – | CC(=O)N1CCN(c2ccc(Nc3ncc(F)c(Nc4cccc(NC5=NCCN5)c4)n3)cc2)CC1 [Compound 1105, N2-[4-(4-Acetylpiperazino)phenyl]-5-fluoro-N4-[3-(N-2-imidazolin-2-yl)aminophenyl]-2,4-pyrimidinediamine] | –
> 10 µM | > 10 µM | – | CC(=O)N1CCN(c2cccc(Nc3ncc(F)c(Nc4cccc(NC5=NCCN5)c4)n3)c2)CC1 [Compound 1106] | –
< 10 µM | < 10 µM | – | CCOC(=O)c1cc2cccc(Nc3ncc(F)c(NC4CCC4)n3)c2[nH]1 [Compound 1107, N4-Cyclobutyl-N2-[2-(ethoxycarbonyl)indol-7-yl]-5-fluoro-2,4-pyrimidinediamine] | –
> 10 µM | < 10 µM | < 10 µM | Fc1cnc(Nc2cccc(N3CCOCC3)c2)nc1NC1CCC1 [Compound 1108, N4-Cyclobutyl-5-fluoro-N2-(3-morpholinophenyl)-2,4-pyrimidinediamine] | –
– | – | – | CCOC(=O)N1CCN(c2cccc(Nc3ncc(F)c(NC4CCC4)n3)c2)CC1 [Compound 1109, N4-Cyclobutyl-N2-[3-(4-ethoxycarbonylpiperazino)pheny]-5-fluoro-2,4-pyrimidinediamine] | IC50 ([1]; tryptase readout): > 10 µM; IC50 [2, 5]: < 10 µM
> 10 µM | < 10 µM | – | CN1CCN(c2ccc(Nc3ncc(F)c(NC4CCC4)n3)cc2)CC1 [Compound 1110, N4-Cyclobutyl-5-fluoro-N2-[4-(4-methylpiperazino)phenyl]-2,4-pyrimidinediamine] | –
– | – | – | CCOC(=O)N1CCN(c2ccc(Nc3ncc(F)c(NC4CCC4)n3)cc2)CC1 [Compound 1111, N4-Cyclobutyl-N2-[4-(4-ethoxycarbonylpiperazino)phenyl]-5-fluoro-2,4-pyrimidinediamine] | IC50 ([1]; Homo sapiens, Mast cell, tryptase): > 10 µM; IC50 ([2]; Homo sapiens, Mast cell, tryptase, 3 pt, read-out: LD Tryptase, CHMC, IgE, 3 pt): < 10 µM
